As a reminder, the IC50 is the point on the concentration scale where inhibition reaches its midpoint. Read a high IC50 as lower potency.

This note sets out measurements from the Kinase Knowledgebase extract (Sharma et al. 2016).

The experiment concerns the target PIK3CB;PIK3CG;PIK3CD;PIK3CA (human) (UniProt P48736). The experiment can be described thus: Enzyme Assay.

The compound `O=C(c1nn(C2CCCN(c3ccccc3)C2)c2c1CS(=O)(=O)c1ccccc1-2)N1CCOCC1` (stereo unspecified) yielded an IC50 of 468 nM.

`O=C(c1cccc(-n2nc(C(=O)N3CCOCC3)c3c2-c2ccccc2S(=O)(=O)C3)c1)N1CCS(=O)(=O)CC1` yielded a half-maximal inhibitory concentration (IC50) of 319 nM. Turning to `O=C(CC1CCCCC1)N1CCC(n2nc(C(=O)N3CCOCC3)c3c2-c2ccccc2S(=O)(=O)C3)C1` (stereo unspecified), the IC50 is 711 nM. `COC(=O)c1ccc(Cn2nc(C(=O)N3CCOCC3)c3c2-c2ccccc2S(=O)(=O)C3)o1` registered a half-inhibitory concentration (IC50) of 431 nM. For `Nc1ccc2c(c1)S(=O)(=O)Cc1c(C(=O)N3CCOCC3)nn(-c3ccccc3)c1-2` the value was 1130 nM; for `O=C(c1nn(-c2ccc(CNC3CCOCC3)cc2)c2c1CS(=O)(=O)c1ccccc1-2)N1CCOCC1`, 107 nM. For `O=C(c1nn(-c2ccccc2)c2c1CS(=O)(=O)c1cc(C(F)(F)F)ccc1-2)N1CCOCC1` the value was 3060 nM; for `O=C(c1nn([C@H]2CCCN(CCF)C2)c2c1CS(=O)(=O)c1ccccc1-2)N1CCOCC1`, 200 nM; for `O=C(c1nn(-c2ccccc2)c2c1CS(=O)(=O)c1ccc([N+](=O)[O-])cc1-2)N1CCOCC1`, 1830 nM.

Compound `O=C(c1nn(-c2ccc(CNC3CCCOC3)cc2)c2c1CS(=O)(=O)c1ccccc1-2)N1CCOCC1` (stereo unspecified) yielded a half-maximal inhibitory concentration (IC50) of 224 nM.

As for `O=C(c1nn(C2CCCNCC2)c2c1CS(=O)(=O)c1ccccc1-2)N1CCOCC1` (stereo unspecified), the IC50 stood at 1900 nM.

`O=C(c1nn([C@@H]2CCCN(CCN3CCOCC3)C2)c2c1CS(=O)(=O)c1c(Cl)cccc1-2)N1CCOCC1`: the IC50 turned out to be 5230 nM.

As for `O=C(CCN1CCC[C@H](n2nc(C(=O)N3CCOCC3)c3c2-c2ccccc2S(=O)(=O)C3)C1)N1CCC(F)(F)C1`, the IC50 is 41 nM. With `CS(=O)(=O)NCc1ccc(-n2nc(C(=O)N3CCOCC3)c3c2-c2ccccc2S(=O)(=O)C3)cc1`, the IC50 was 421 nM. `O=C(c1nn(C2CCN(CCC3CCOCC3)CC2)c2c1CS(=O)(=O)c1ccccc1-2)N1CCOCC1` displayed an IC50 of 692 nM. Consider `O=C(c1nn(C2CCCN(CC3CCOC3)C2)c2c1CS(=O)(=O)c1c(F)cccc1-2)N1CCOCC1` (stereo unspecified), for which the 50% inhibitory concentration (IC50) came out at 21 nM.

`O=C(c1nn(-c2ccccc2)c2c1CS(=O)(=O)c1nccn1-2)N1CCOCC1` gave an IC50 of 477 nM. `O=C(c1nn([C@H]2CCCN(C3CCCNC3)C2)c2c1CS(=O)(=O)c1ccccc1-2)N1CCOCC1` (stereo partly specified) came in with an IC50 of 25 nM.

With `O=C(CCN1CCC[C@H](n2nc(C(=O)N3CCOCC3)c3c2-c2ccccc2S(=O)(=O)C3)C1)N1CC(F)(F)C1`, the IC50 is 39 nM. For the compound `COC1CCN(Cc2cccc(-n3nc(C(=O)N4CCOCC4)c4c3-c3ccccc3S(=O)(=O)C4)c2)C1` (stereo unspecified), the concentration for half-maximal inhibition (IC50) was found to be 350 nM.

For the compound `O=C(c1nn(C2CN(CCC3CCOCC3)C2)c2c1CS(=O)(=O)c1ccccc1-2)N1CCOCC1`, the IC50 was 95 nM.

As to `CS(=O)(=O)c1ccc(-n2nc(C(=O)N3CCOCC3)c3c2-c2ccccc2S(=O)(=O)C3)cc1`, the concentration for half-maximal inhibition (IC50) was found to be 4520 nM. Consider `COC1CN(Cc2ccc(-n3nc(C(=O)N4CCOCC4)c4c3-c3ccccc3S(=O)(=O)C4)cc2)C1`, for which the concentration for half-maximal inhibition (IC50) was found to be 165 nM. `COc1cccc2c1S(=O)(=O)Cc1c(C(=O)N3CCOCC3)nn(C)c1-2` registered an IC50 of 1730 nM. `O=C(c1nn(N2CCOCC2)c2c1C(F)S(=O)(=O)c1ccccc1-2)N1CCOCC1` (stereo unspecified): the IC50 is 9800 nM. Consider `O=C(c1nn(-c2ccc(CN3CCC(F)CC3)cc2)c2c1CS(=O)(=O)c1ccccc1-2)N1CCOCC1`, for which the IC50 is 247 nM. `O=C(c1nn(-c2cccc(CN3CCC(F)(F)CC3)c2)c2c1CS(=O)(=O)c1ccccc1-2)N1CCOCC1` displayed an IC50 of 560 nM.

In turn, `CC(=O)Nc1cccc2c1S(=O)(=O)Cc1c(C(=O)N3CCOCC3)nn(-c3ccccc3)c1-2` yielded a concentration for half-maximal inhibition (IC50) of 9880 nM.

`O=C(c1nn(C2CCCN(C3CCOCC3)C2)c2c1CS(=O)(=O)c1ccccc1-2)N1CCOCC1` (stereo unspecified) gave an IC50 of 254 nM. For `O=C(Nc1cccc(-n2nc(C(=O)N3CCOCC3)c3c2-c2ccccc2S(=O)(=O)C3)c1)N1CCOCC1`, the IC50 stood at 3590 nM. In the case of `O=C(c1nn(C2CCNC2)c2c1CS(=O)(=O)c1ccccc1-2)N1CCOCC1` (stereo unspecified), the IC50 came out at 4640 nM.
